Measured values published in patent publication EP0511903B1, “Conjugate of calcitonin and polyethylene glycol” (TEVA PHARMACEUTICAL INDUSTRIES LTD., priority 1991, dated 1998).
Ends that are not written are not given here. amino‑PEG = not defined here

Test system: 2 anticorps monoclonaux reconnaissant 2 épitopes différents sur la calcitonine humaine
Test: Immunoradiometric assay (IRMA) for human calcitonin using 2 monoclonal antibodies
Type: binding
Conditions: IRMA with 2 monoclonal antibodies
From the text: Un conjugué de polyéthylène glycol aminé couplé sur l'acide aspartique de la calcitonine humaine a été synthétisé suivant la méthode décrite à l'exemple 2. On dispose d'un dosage immunoradiométrique pour la Calcitonine humaine, utilisant 2 anticorps monoclonaux reconnaissant 2 épitopes différents sur la calcitonine humaine. Par ce dosage, le dérivé PEG-NH2-CTH n'est plus reconnu qu'à 0.4 % par rapport à la calcitonine humaine. Ceci signifie qu'au moins un épitope de la calcitonine humaine se trouve masqué par le couplage en position 15 d'une molécule de PEG. Il y a donc une modification de l'antigénicité de la calcitonine, de par son couplage au PEG, qui diminue fortement sa reconnaissance par des anticorps.

## PEG NH2-CThumaine: conjugué de polyéthylène glycol aminé couplé sur l'acide aspartique (position 15) de la calcitonine humaine (CGNLSTCMLGTYTQD(amino‑PEG)FNKFHTFPQTAIGVGAP; ends and bridges not checked; UniProt P01258 85-116, looked up)
  reconnaissance par rapport à la calcitonine humaine: 0.4%
